Experimental data: patent US20220402873A1, “NOVEL P62 LIGAND COMPOUND, AND COMPOSITION CONTAINING SAME FOR PREVENTING, AMELIORATING, OR TREATING PROTEINOPATHIES” (AUTOTAC INC., priority 2019, published 2022)

Assays:
Type in all cases: cell-based
p62 protein [1] = biological target: T1, p62 protein (Homo sapiens, UniProt Q13501); assay: Oligomerization activity of p62 protein by immunoblotting; parameters: endogenous in cells; conditions: HEK293 cell line lysate treated with test compounds for 2 hours at room temperature
Text: In order to evaluate the oligomerization activity efficacy of p62 protein of the compounds (Examples 1-20), HEK293 cell line, which is human embryonic kidney-derived cell, was collected. As representative compounds of the present compounds, the compounds of Examples 1-20 (Example 1 (ATB10048), Example 2 (ATB10047), Example 3 (ATB10049), Example 4 (ATB10051), Example 5 (ATB10050), Example 6 (ATB10056), Example 7 (ATB10052), Example 8 (ATB10057), Example 9 (ATB10060), Example 10 (ATB10072), Example 11 (ATB10075), Example 12 (ATB10078), Example 13 (ATB10079), Example 14 (ATB10080), Example 15 (ATB10081), Example 16 (ATB10087), Example 17 (ATB10096), Example 18 (ATB10097), Example 19 (ATB10099) and Example 20 (ATB10100)) were selected, and in order to measure the activation and oligomerization of the p62 protein in cells according to the treatment with these selected representative compounds, each cell was dispensed into a 100 phi dish. The cells were collected after additional culture for 24 hours so that the cells were completely attached to the surface of the plate, and 100 ul of lysis buffer (20 mM Tris (pH 7.4), 150 mM NaCl, 1% Triton X-100, 2 mM NaF, 2 mM EDTA, 2 mM beta-glycerophosphate, 5 mM sodium orthovanadate, 1 mM PMSF, leupeptin, aproteinin) was injected to each sample, and the cells were lysed. Based on the measured total protein concentration, each sample was treated with the test compounds for 2 hours at room temperature, and then a sample buffer was added and reacted at 95° C. for 10 minutes. 25 ul was taken from the samples after the reaction was completed and dispensed into each well of an acrylamide gel, and immunoblotting was performed.

p62 protein [2] = biological target: T1, p62 protein; assay: Activity of p62 protein and delivery of ubiquitinated substrate proteins to autophagy by immunofluorescence staining (p62, FK2) and confocal microscopy; parameters: endogenous in cells; host or cells: HeLa; conditions: Hela cell line, 1 uM, 6 hours
Method: Immunofluorescence staining was performed using p62 and FK2 as markers to determine the level of the activity of p62 protein of the compounds (Examples 1-20). In order to determine the level of p62 activity and autophagy activity by the novel p62 ligand and its isomers in the cultured cells, the Hela cell line derived from cervical cancer patients was treated with a novel p62 ligand compound (Example 1 (ATB10048), Example 2 (ATB10047), Example 3 (ATB10049), Example 5 (ATB10050), Example 4 (ATB10051), Example 7 (ATB10052), Example 6 (ATB10056), Example 8 (ATB10057), Example 9 (ATB10060), Example 10 (ATB10072), Example 11 (ATB10075), Example 12 (ATB10078), […], Example 14 (ATB10080), Example 15 (ATB10081), Example 16 (ATB10087)), Example 17 (ATB0096), Example 18 (ATB10097), Example 19 (ATB10099) and Example 20 (ATB10100)) and cultured, and then the level of puncta expression and location of FK2, which was a marker of the protein to be delivered to and degraded in the autophagy through the mediation of the intracellular ubiquitinated p62, and the puncta local co-existence with p62 were observed.
For immunofluorescence staining, a cover glass was placed on a 24-well plate, cells were dispensed and cultured for 24 hours, and then 1 uM of the novel p62 ligand according to the present invention was treated. After culturing for an additional 6 hours for the action of the compound, the medium was removed, and the cells were fixed using formaldehyde at room temperature. In order to prevent non-specific staining, the cells were reacted with a blocking solution at room temperature for 1 hour, and then the LC3 antibody diluted at a certain ratio was treated with a blocking solution and then reacted at room temperature for 1 hour. After the antibody-treated cells were washed 3 times with PBS, the goat-derived secondary antibody was diluted at a certain ratio using the blocking solution, and then reacted at room temperature for 30 minutes. After further washing with PBS three times, and DAPI staining was performed for intracellular nuclear staining. Then, the level of expression of p62 or FK2, the level of intracellular puncta formation, and the level of coexistence in the cells were observed by a confocal microscope.

p62 protein [3] = biological target: T1, p62 protein; assay: Activity of p62 protein and delivery to autophagosome by immunofluorescence staining (p62, LC3-GFP) and confocal microscopy; parameters: endogenous in cells; host or cells: HeLa; conditions: Hela-LC3-GFP cell line, 5 uM, 24 hours
Method: Immunofluorescence staining was performed using p62 and FK2 marker to determine the level of activity of p62 protein of the compounds (Examples 1-20). In order to determine the level of p62 activity and autophagy activity by the novel p62 ligand and its isomers in cultured cells, Hela-LC3-GFP cell line derived from cervical cancer patients was treated with the novel p62 ligand compounds (Example 2 (ATB10047), Example 3 (ATB10049), Example 4 (ATB10051), Example 6 (ATB10056), Example 9 (ATB10060), Example 12 (ATB10078), Example 16 (ATB10087) and Example (ATB10097)) and cultured. Then, the level of puncta expression and location of LC3-GFP, which is an essential autophagosome marker for macroautophagy, and the puncta local co-existence of p62 were observed.
For immunofluorescence staining, a cover glass was placed on a 24-well plate, cells were dispensed and cultured for 24 hours, and then treated with 5 uM of the novel p62 ligand according to the present invention. The cells were further cultured for an additional 24 hours for the action of the compound, the medium was removed, and the cells were fixed using formaldehyde at room temperature. In order to prevent non-specific staining, the cells were reacted with a blocking solution at room temperature for 1 hour, and then the LC3 antibody diluted at a certain ratio was treated with the blocking solution and then reacted at room temperature for 1 hour. After the antibody-treated cells were washed 3 times with PBS, the goat-derived secondary antibody was diluted at a certain ratio using the blocking solution, and then reacted at room temperature for 30 minutes. The cells were washed again with PBS three times and subjected to DAPI staining for intracellular nuclear staining, and then the level of expression of p62 or LC3, intracellular puncta formation, and intracellular coexistence level were observed by a confocal microscope.

T1 sequence (Q13501 whole entry): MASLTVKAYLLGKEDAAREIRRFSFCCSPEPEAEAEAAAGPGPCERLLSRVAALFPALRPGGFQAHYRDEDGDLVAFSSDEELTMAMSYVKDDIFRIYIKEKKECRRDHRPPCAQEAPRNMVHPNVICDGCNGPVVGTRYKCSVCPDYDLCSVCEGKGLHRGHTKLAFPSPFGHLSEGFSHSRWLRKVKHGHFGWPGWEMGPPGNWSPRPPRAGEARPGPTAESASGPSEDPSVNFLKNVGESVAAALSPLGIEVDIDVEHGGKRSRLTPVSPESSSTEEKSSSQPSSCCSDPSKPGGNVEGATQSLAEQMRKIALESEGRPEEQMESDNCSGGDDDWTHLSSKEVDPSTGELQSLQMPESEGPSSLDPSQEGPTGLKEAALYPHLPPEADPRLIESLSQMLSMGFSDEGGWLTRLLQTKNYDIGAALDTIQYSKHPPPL

SMILES	p62 protein oligomerization activity (immunoblot, FIGS. 2a to 2d) (p62 protein [1])	delivery of ubiquitinated proteins marked with FK2 to autophagosome mediated by p62 (FIGS. 3a to 3d) (p62 protein [2])	targeting of activated, oligomerized p62 protein to the autophagosome (FIG. 4) (p62 protein [3])
O=C(CO)NCc1ccc(OCc2ccccc2)cn1 [Example 3, N-((5-(benzyloxy)pyridin-2-yl)methyl)-2-hydroxyacetamide]	increasing the p62 protein oligomerization activity	show the efficacy of delivering the proteins to be delivered to and degraded by autophagosome	show the efficacy of targeting them to the autophagosome
O=C(CO)NCc1cc(OCc2ccccc2)ccn1 [Example 4, N-((4-(benzyloxy)pyridin-2-yl)methyl)-2-hydroxyacetamide]	increasing the p62 protein oligomerization activity	show the efficacy of delivering the proteins to be delivered to and degraded by autophagosome	show the efficacy of targeting them to the autophagosome
NC(=O)NCc1ccc(OCc2ccccc2)cn1 [Example 6, 1-((5-(benzyloxy)pyridin-2-yl)methyl)urea]	increasing the p62 protein oligomerization activity	show the efficacy of delivering the proteins to be delivered to and degraded by autophagosome	show the efficacy of targeting them to the autophagosome
OCCNCc1ncc(OCc2ccccc2)cn1 [Example 9, 2-(((5-(benzyloxy)pyrimidin-2-yl)methyl)amino)ethan-1-ol]	increasing the p62 protein oligomerization activity	show the efficacy of delivering the proteins to be delivered to and degraded by autophagosome	show the efficacy of targeting them to the autophagosome
COC(=O)CCNC[C@@H](O)COc1cc(OCc2ccccc2)ccn1 [Example 12, methyl (R)-3-((3-((4-(benzyloxy)pyridin-2-yl)oxy)-2-hydroxypropyl)amino)propanoate]	increasing the p62 protein oligomerization activity	show the efficacy of delivering the proteins to be delivered to and degraded by autophagosome	show the efficacy of targeting them to the autophagosome
OCCNCc1ccc(CCc2ccccc2)o1 [Example 16, 2-(((5-phenethylfuran-2-yl)methyl)amino)ethan-1-ol]	increasing the p62 protein oligomerization activity	show the efficacy of delivering the proteins to be delivered to and degraded by autophagosome	show the efficacy of targeting them to the autophagosome
OCCNCc1ccc(OCc2ccccc2)o1 [Example 18, 2-(((5-(benzyloxy)-furan-2-yl)methyl)amino)ethan-1-ol]	increasing the p62 protein oligomerization activity	show the efficacy of delivering the proteins to be delivered to and degraded by autophagosome	show the efficacy of targeting them to the autophagosome
